{"source": "paper PMC6201930", "about": "(PLoS ONE, 2018)", "key": {"mouse cochlear explants": {"test_system": "mouse cochlear explants", "set-up": "method as in PMID 24251786", "conditions": "obtained previously; cited from earlier work"}, "primary mouse myoblasts": {"test_system": "primary mouse myoblasts", "assay": "Cytotoxicity in myoblasts", "conditions": "read-out: Myoblast CC50", "text": "(§1) When considering compounds for potential readthrough therapy it is important to monitor cellular and animal safety. In order to determine the most promising compounds to further evaluate in in vivo safety, we measured cytotoxicity in two different cell types. We used activated human peripheral blood mononuclear cells (PBMCs) (Table 2 and Fig 2D and 2E). PBMCs are a primary cell that when activated with phytohaemagglutinin (PHA) expand quickly and are commonly used as an in vitro surrogate for rapidly growing cells in the human body to evaluate cytotoxicity. Prior to advancing compounds into human studies, safety evaluation in rodents is performed. As an in vitro surrogate for rodent toxicity, we used primary mouse myoblasts."}, "[1]": {"test_system": "fLuc mRNA harboring a UGA nonsense mutation at codon 190 (fLuc-190-NS)", "assay_type": "biochemical, rabbit", "text": "ThefLuc-190-NS assay is an in vitro rabbit reticulocyte lysate translation of an fLuc mRNA harboring a UGA nonsense mutation at codon 190 (fLuc-190-NS). It is believed that positively charged aminoglycosides are poorly taken up by cells, and we used this cell-free readthrough assay to eliminate the potential variable of cell uptake when measuring readthrough potency. […] Readthrough protein was detected using a HA-HIS MSD immunoassay described previously.\nThis cell-free translation assay used synthetic LUC mRNAs harboring an EMCV IRES and LUC codon 190-UGA premature stop codon prepared using the MegaScript in vitro transcription kit (Ambion). Translation reactions were done with the Rabbit Reticulocyte Lysate System (Promega) with 100 ng RNA and increasing concentrations of aminoglycosides. The amount of luminescence produced was determined after approximately 4 hours using a Viewlux CCD imager (Perkin-Elmer). Fold suppression over background was calculated as (aminoglycoside light units/PBS light units)."}, "[2]": {"test_system": "tGFP-CFTR542X-HA-HIS construct (codon 542 UGA) in 293H cells", "assay": "tGFP-542X readthrough assay (HA-HIS MSD immunoassay)", "assay_type": "cell-based, human"}, "[3]": {"test_system": "p53 R213* UGA premature termination codon in HDQ-P1 mammary carcinoma cells", "assay": "HDQ-p53UGA213 readthrough assay (full-length p53, MSD immunoassay)", "assay_type": "cell-based, human", "experimental": "We utilized HDQ-P1 mammary carcinoma cells, which are homozygous for R213*, a UGA premature termination codon in the gene for the tumor suppressor protein p53 [30]. […] Western blot hybridization and Meso Scale Discovery (MSD) immunoassay detection of p53 were done as previously described. […] Cells (45K per well) were grown in 96-well plates and treated with compounds for 24 hours. […] Cells were lysed with 60 μl per well of lysis buffer (20 mM Tris-HCL, pH 7.5, 1 mM EGTA, 1 mM EDTA,150 mM Nacl, 0.5% Triton X100) for one hour at room temperature and 30 μl of lysate per well were transferred to the coated plate and incubated overnight at 4 °C. […] Plates were then washed three times with PBS-T and 30 μl of 0.25 μ/ml goat anti-rabbit IgG-Sulfo-tag antibody (MSD) in TBS-C was added and incubated for 1 hour at room temperature. Plates were then washed three times with PBS-T and 150 μl read buffer (MSD) was added. Plates were read immediately in a SECTOR S 600 (MSD)."}, "[4]": {"test_system": "activated human peripheral blood mononuclear cells (PBMCs)", "assay": "Cytotoxicity in stimulated PBMCs (CellTitre-Glo ATP)", "conditions": "read-out: Stimulated PBMC CC50", "text": "as §1\nFrozen human Peripheral Blood Mononuclear Cells (PBMCs) were obtained from […] (Alameda, CA, Cat# PB003F) from a single donor. […] Plates were incubated at 37°C with 5% CO2 for 4 hours prior to compound treatment. Compounds were serially diluted and added to the plates. Plates were incubated at 37°C, 5% CO2 incubator, for 72 hours prior to determinations of ATP levels. Cell viability was determined using a chemiluminescent assay to monitor adenosine triphosphate (ATP) levels in live cells (CellTitre-Glo; CTG; Promega, Cat#G7571). Methods were performed per the manufacturer’s instructions."}, "[5]": {"test_system": "zebrafish neuromasts (hair cells)", "assay": "Neuromast toxicity assay (DASPEI staining)"}, "[6]": {"conditions": "individual determinations (S1 File)"}, "[7]": {"conditions": "AVERAGE (S1 File), unit not given for EC5X"}, "[8]": {"conditions": "individual experiments (S1 File)"}, "[9]": {"conditions": "individual experiments (S1 File), unit not printed for EC5X (EC2X of the sheet in uM)"}}, "note": "Values joined by “and” are separate entries in the source; they are usually repeats but may differ in a detail not shown here. Equal entries are not always repeated. Where two headings read alike, the source gives them in different places."}
{"smiles": "C[C@@H](O)C1O[C@H](O[C@@H]2C(N)C[C@@H](NC(=O)[C@@H](O)CCN)[C@@H](O)C2O[C@@H]2O[C@H](CN)[C@H](O)C2O)[C@@H](N)C(O)[C@@H]1O", "note": "(some centres unmarked) [NB84, reference compound]", "values": [{"measurement": "CC50", "setting": "mouse cochlear explants", "value": 20, "unit": "µM"}, {"measurement": "CC50", "setting": "primary mouse myoblasts; AVERAGE (S1 File)", "value": 279, "unit": "µM"}, {"measurement": "CC50", "setting": "primary mouse myoblasts; [6]", "value": "411 µM and 147 µM"}, {"measurement": "fLuc-190-NS EC2X", "setting": "[1]; AVERAGE (S1 File)", "value": 0.0453, "unit": "µM"}, {"measurement": "fLuc-190-NS MaxFold", "setting": "[1]; AVERAGE (S1 File)", "value": 180.8}, {"measurement": "fLuc-190-NS EC5X", "setting": "[1]; [7]", "value": 0.1430}, {"measurement": "fLuc-190-NS EC2X", "setting": "[1]; cell-free, average ± SD", "value": "0.045 ± 0.011", "unit": "µM"}, {"measurement": "fLuc-190-NS EC2X", "setting": "[1]; [8]", "value": "0.0389 µM and 0.0393 µM and 0.0578 µM"}, {"measurement": "fLuc-190-NS MaxFold", "setting": "[1]; [8]", "value": "172.62 and 163.42 and 206.48"}, {"measurement": "fLuc-190-NS EC5X", "setting": "[1]; [9]", "value": "0.1461 and 0.1276 and 0.1554"}, {"measurement": "tGFP-542X EC2X", "setting": "[2]; 293H cells, 24 hours, average ± SD", "value": "38 ± 12", "unit": "µM"}, {"measurement": "tGFP-542X EC2X", "setting": "[2]; AVERAGE (S1 File)", "value": 38.2, "unit": "µM"}, {"measurement": "tGFP-542X Maxfold", "setting": "[2]; AVERAGE (S1 File)", "value": 110.3}, {"measurement": "tGFP-542X EC5X", "setting": "[2]; [7]", "value": 109.2}, {"measurement": "tGFP-542X EC2X", "setting": "[2]; [8]", "value": "25 µM and 46 µM and 44 µM"}, {"measurement": "tGFP-542X Maxfold", "setting": "[2]; [8]", "value": "176 and 74 and 81"}, {"measurement": "tGFP-542X EC5X", "setting": "[2]; [9]", "value": "67 and 132 and 128"}, {"measurement": "tGFP-542X Maxfold", "setting": "[2]; maximum readthrough above background, average ± SD", "value": "110 ± 57", "unit": "fold"}, {"measurement": "HDQ-p53UGA213 EC2X", "setting": "[3]; AVERAGE (S1 File)", "value": 16.6, "unit": "µM"}, {"measurement": "HDQ-p53UGA213 max", "setting": "[3]; AVERAGE (S1 File)", "value": 29.7}, {"measurement": "HDQ-p53UGA213 EC2X", "setting": "[3]; concentration required to double the level of full-length p53 protein, average ± SD, at least three experiments, highest concentration 300 μM", "value": "17 ± 5", "unit": "µM"}, {"measurement": "HDQ-p53UGA213 EC2X", "setting": "[3]; [8]", "value": "20.31 µM and <15.63 µM and 17.59 µM and 8.82 µM and 19.52 µM"}, {"measurement": "HDQ-p53UGA213 max", "setting": "[3]; individual experiments (S1 File), max fold", "value": "15.6 and 52.2 and 25.2 and 30.9 and 25.4 and 29"}, {"measurement": "HDQ-p53UGA213 (Maxfold)", "setting": "[3]; maximum readthrough activity above background, average ± SD", "value": "30 ± 12", "unit": "fold"}, {"measurement": "CC50", "setting": "[4]; AVERAGE (S1 File)", "value": 440, "unit": "µM"}, {"measurement": "CC50", "setting": "[4]; [6]", "value": "536 µM and 1160 µM and 179 µM and 156 µM and 173 µM"}, {"measurement": "CC50", "setting": "[5]; read-out: Neuromast (CC50), zebrafish embryos 5 dpf, 24 hours exposure, maximum of two measurements", "value": "8 ± 0.1", "unit": "µM"}, {"measurement": "CC50", "setting": "[5]; read-out: Neuromast CC50, AVERAGE (S1 File)", "value": 7.9, "unit": "µM"}, {"measurement": "CC50", "setting": "[5]; read-out: Neuromast CC50, individual determinations (S1 File)", "value": 7.8, "unit": "µM"}]}
